Experimental data from patent US10336732B2, “1-heterocyclyl isochromanyl compounds and analogs for treating CNS disorders” (Sunovion Pharmaceuticals Inc., priority 2015, dated 2019).

system: mice; assay: Neuropharmacological assay (SmartCube), behavioral signature of compound-treated mice; assay type: in vivo; details: i.p. 15 min before behavioral test, most efficacious dose(s) of 3 doses
Text: Neurosci. […] As reported in Roberds, because psychiatric diseases generally result from disorders of cell-cell communication or circuitry, intact systems are useful in detecting improvement in disease-relevant endpoints. These endpoints are typically behavioral in nature, often requiring human observation and interpretation. To facilitate testing of multiple compounds for behavioral effects relevant to psychiatric disease, PsychoGenics, Inc. (Tarrytown, N.Y., “PGI”) developed SmartCube™, an automated system in which behaviors of compound-treated mice are captured by digital video and analyzed with computer algorithms. […] PGI Analytical Systems uses data from SmartCube™ to compare the behavioral signature of a test compound to a database of behavioral signatures obtained using a large set of diverse reference compounds. (The composition of the database as well as validation of the method is further described in Roberds). In this way, the neuropharmacological effects of a test compound can be predicted by similarity to major classes of compounds, such as antipsychotics, anxiolytics and antidepressants.
The SmartCube™ system produces an activity signature indicating the probability that the activity of the test compound at the administered dose matches a given class of neuropharmacological agents. (See, e.g., Roberds, FIGS. 2 and 3). The test compound is simultaneously compared against multiple classes of agents; thus, a separate probability is generated for each behavioral effect measured (e.g., anxiolytic activity, analgesic activity, etc.). In Table 4, these probabilities are reported for each behavioral effect measured as follows:
Provided compounds were dissolved in a mixture of Pharmasolve™ (N-methyl-2-pyrrolidone), polyethylene glycol and propylene glycol, and were injected i.p. 15 min. before the behavioral test. For each compound, injections were administered at 3 different doses. For each behavioral effect measured, results for the most efficacious dose(s) are presented.

| SMILES | AD: ADHD (probability that behavioral signature matches class) | AG: analgesic (probability that behavioral signature matches class) | AX: anxiolytic (probability that behavioral signature matches class) | CE: cognitive enhancer (probability that behavioral signature matches class) | DP: anti-depressant (probability that behavioral signature matches class) | HA: hallucinogen (probability that behavioral signature matches class) | MS: mood stabilizer (probability that behavioral signature matches class) | PS: anti-psychotic (probability that behavioral signature matches class) | SD: sedative hypnotic (probability that behavioral signature matches class) | UN: uncharacterized CNS activity (probability that behavioral signature matches class) |
| --- | --- | --- | --- | --- | --- | --- | --- | --- | --- | --- |
| Cc1ccc2c(c1)[C@H](C1CNC1)OCC2 [Compound I-117, (S)-3-(7-methylisochroman-1-yl)azetidine] | + (LOQ ≤ + <5%) | + (LOQ ≤ + <5%) | ++ (5% ≤ ++ <25%) | ++ (5% ≤ ++ <25%) | ++ (5% ≤ ++ <25%) | + (LOQ ≤ + <5%) | + (LOQ ≤ + <5%) | +++ (25% ≤ +++ <50%) | + (LOQ ≤ + <5%) | + (LOQ ≤ + <5%) |
| Cc1cccc2c1[C@H]([C@@H]1CCCN1)OCCC2 [Compound I-102, (S)-2-((R)-9-methyl-1,3,4,5-tetrahydrobenzo[c]oxepin-1-yl)pyrrolidine] | + (LOQ ≤ + <5%) | ++ (5% ≤ ++ <25%) | +++ (25% ≤ +++ <50%) | ++ (5% ≤ ++ <25%) | ++ (5% ≤ ++ <25%) | + (LOQ ≤ + <5%) | ++ (5% ≤ ++ <25%) | ++ (5% ≤ ++ <25%) | + (LOQ ≤ + <5%) | + (LOQ ≤ + <5%) |
| c1ccc(-c2ccc3c(c2)CCO[C@@H]3[C@@H]2CCCN2)nc1 [Compound I-57, 2-((S)-1-((S)-pyrrolidin-2-yl)isochroman-6-yl)pyridine] | + (LOQ ≤ + <5%) | + (LOQ ≤ + <5%) | + (LOQ ≤ + <5%) | + (LOQ ≤ + <5%) | + (LOQ ≤ + <5%) | + (LOQ ≤ + <5%) | + (LOQ ≤ + <5%) | + (LOQ ≤ + <5%) | + (LOQ ≤ + <5%) | + (LOQ ≤ + <5%) |
| Fc1ccc2c(c1)[C@H]([C@@H]1CCCN1)OCCC2 [Compound I-107, (S)-2-((R)-8-fluoro-1,3,4,5-tetrahydrobenzo[c]oxepin-1-yl)pyrrolidine] | + (LOQ ≤ + <5%) | ++ (5% ≤ ++ <25%) | +++ (25% ≤ +++ <50%) | ++ (5% ≤ ++ <25%) | ++ (5% ≤ ++ <25%) | + (LOQ ≤ + <5%) | ++ (5% ≤ ++ <25%) | +++ (25% ≤ +++ <50%) | ++ (5% ≤ ++ <25%) | ++ (5% ≤ ++ <25%) |
| FC1(F)CN[C@H]([C@@H]2OCCc3ccccc32)C1 [Compound I-64, (S)-4,4-difluoro-2-((R)-isochroman-1-yl)pyrrolidine] | + (LOQ ≤ + <5%) | + (LOQ ≤ + <5%) | ++ (5% ≤ ++ <25%) | + (LOQ ≤ + <5%) | + (LOQ ≤ + <5%) | + (LOQ ≤ + <5%) | + (LOQ ≤ + <5%) | + (LOQ ≤ + <5%) | + (LOQ ≤ + <5%) | + (LOQ ≤ + <5%) |
| c1ccc2c(c1)CCO[C@H]2[C@H]1CCCN1 [Compound I-19, (R)-2-((R)-isochroman-1-yl)pyrrolidine] | + (LOQ ≤ + <5%) | + (LOQ ≤ + <5%) | ++ (5% ≤ ++ <25%) | ++ (5% ≤ ++ <25%) | + (LOQ ≤ + <5%) | + (LOQ ≤ + <5%) | + (LOQ ≤ + <5%) | ++++ (50% ≤ ++++) | + (LOQ ≤ + <5%) | ++++ (50% ≤ ++++) |
| Clc1ccc2c(c1)CCO[C@H]2[C@@H]1CCCN1 [Compound I-34, (S)-2-((R)-6-chloroisochroman-1-yl)pyrrolidine] | + (LOQ ≤ + <5%) | ++ (5% ≤ ++ <25%) | ++ (5% ≤ ++ <25%) | ++ (5% ≤ ++ <25%) | ++ (5% ≤ ++ <25%) | + (LOQ ≤ + <5%) | + (LOQ ≤ + <5%) | ++ (5% ≤ ++ <25%) | ++ (5% ≤ ++ <25%) | +++ (25% ≤ +++ <50%) |
| Fc1ccc2c(c1)CCO[C@@H]2[C@H]1CCCN1 [Compound I-11, (R)-2-((S)-6-fluoroisochroman-1-yl)pyrrolidine] | + (LOQ ≤ + <5%) | ++ (5% ≤ ++ <25%) | ++ (5% ≤ ++ <25%) | ++ (5% ≤ ++ <25%) | ++ (5% ≤ ++ <25%) | + (LOQ ≤ + <5%) | + (LOQ ≤ + <5%) | +++ (25% ≤ +++ <50%) | + (LOQ ≤ + <5%) | ++ (5% ≤ ++ <25%) |
| Fc1cccc2c1CCO[C@@H]2[C@H]1CCCN1 [Compound I-16, (R)-2-((S)-5-fluoroisochroman-1-yl)pyrrolidine] | + (LOQ ≤ + <5%) | + (LOQ ≤ + <5%) | ++ (5% ≤ ++ <25%) | ++ (5% ≤ ++ <25%) | ++ (5% ≤ ++ <25%) | + (LOQ ≤ + <5%) | ++ (5% ≤ ++ <25%) | +++ (25% ≤ +++ <50%) | + (LOQ ≤ + <5%) | +++ (25% ≤ +++ <50%) |
| N#Cc1ccc2c(c1)[C@@H]([C@H]1CCCN1)OCC2 [Compound I-42, (S)-1-((R)-pyrrolidin-2-yl)isochroman-7-carbonitrile] | + (LOQ ≤ + <5%) | ++ (5% ≤ ++ <25%) | ++ (5% ≤ ++ <25%) | ++ (5% ≤ ++ <25%) | +++ (25% ≤ +++ <50%) | + (LOQ ≤ + <5%) | + (LOQ ≤ + <5%) | ++ (5% ≤ ++ <25%) | ++ (5% ≤ ++ <25%) | + (LOQ ≤ + <5%) |

same assay, conditions: i.p. 15 min before behavioral test, most efficacious dose(s) of 3 doses

| SMILES | XG: anxiogenic (probability that behavioral signature matches class) |
| --- | --- |
| Cc1ccc2c(c1)[C@H](C1CNC1)OCC2 [Compound I-117, (S)-3-(7-methylisochroman-1-yl)azetidine] | + (LOQ ≤ + <5%) |
| Cc1cccc2c1[C@H]([C@@H]1CCCN1)OCCC2 [Compound I-102, (S)-2-((R)-9-methyl-1,3,4,5-tetrahydrobenzo[c]oxepin-1-yl)pyrrolidine] | + (LOQ ≤ + <5%) |
| c1ccc(-c2ccc3c(c2)CCO[C@@H]3[C@@H]2CCCN2)nc1 [Compound I-57, 2-((S)-1-((S)-pyrrolidin-2-yl)isochroman-6-yl)pyridine] | + (LOQ ≤ + <5%) |
| Fc1ccc2c(c1)[C@H]([C@@H]1CCCN1)OCCC2 [Compound I-107, (S)-2-((R)-8-fluoro-1,3,4,5-tetrahydrobenzo[c]oxepin-1-yl)pyrrolidine] | + (LOQ ≤ + <5%) |
| FC1(F)CN[C@H]([C@@H]2OCCc3ccccc32)C1 [Compound I-64, (S)-4,4-difluoro-2-((R)-isochroman-1-yl)pyrrolidine] | + (LOQ ≤ + <5%) |
| c1ccc2c(c1)CCO[C@H]2[C@H]1CCCN1 [Compound I-19, (R)-2-((R)-isochroman-1-yl)pyrrolidine] | + (LOQ ≤ + <5%) |
| Clc1ccc2c(c1)CCO[C@H]2[C@@H]1CCCN1 [Compound I-34, (S)-2-((R)-6-chloroisochroman-1-yl)pyrrolidine] | + (LOQ ≤ + <5%) |
| Fc1ccc2c(c1)CCO[C@@H]2[C@H]1CCCN1 [Compound I-11, (R)-2-((S)-6-fluoroisochroman-1-yl)pyrrolidine] | + (LOQ ≤ + <5%) |
| Fc1cccc2c1CCO[C@@H]2[C@H]1CCCN1 [Compound I-16, (R)-2-((S)-5-fluoroisochroman-1-yl)pyrrolidine] | + (LOQ ≤ + <5%) |
| N#Cc1ccc2c(c1)[C@@H]([C@H]1CCCN1)OCC2 [Compound I-42, (S)-1-((R)-pyrrolidin-2-yl)isochroman-7-carbonitrile] | + (LOQ ≤ + <5%) |
